In paper PMC6351562, “Structure, function, and inhibition of drug reactivating human gut microbial β-glucuronidases” (Scientific Reports, 2019):
Values joined by “and” are separate entries in the source; they are usually repeats but may differ in a detail not shown here. Equal values may be shown once.

Tests used:
Assay type in all cases: biochemical
[1] = molecular target: T1, Faecalibacterium prausnitzii GUS (FpGUS) (Faecalibacterium duncaniae, UniProt C7H4D2); experiment: In vitro DCF-G processing assay (UPLC); conditions: DCF-G as substrate, 400 µM; pH 6.0; 37 °C
T1 sequence (C7H4D2 1-608): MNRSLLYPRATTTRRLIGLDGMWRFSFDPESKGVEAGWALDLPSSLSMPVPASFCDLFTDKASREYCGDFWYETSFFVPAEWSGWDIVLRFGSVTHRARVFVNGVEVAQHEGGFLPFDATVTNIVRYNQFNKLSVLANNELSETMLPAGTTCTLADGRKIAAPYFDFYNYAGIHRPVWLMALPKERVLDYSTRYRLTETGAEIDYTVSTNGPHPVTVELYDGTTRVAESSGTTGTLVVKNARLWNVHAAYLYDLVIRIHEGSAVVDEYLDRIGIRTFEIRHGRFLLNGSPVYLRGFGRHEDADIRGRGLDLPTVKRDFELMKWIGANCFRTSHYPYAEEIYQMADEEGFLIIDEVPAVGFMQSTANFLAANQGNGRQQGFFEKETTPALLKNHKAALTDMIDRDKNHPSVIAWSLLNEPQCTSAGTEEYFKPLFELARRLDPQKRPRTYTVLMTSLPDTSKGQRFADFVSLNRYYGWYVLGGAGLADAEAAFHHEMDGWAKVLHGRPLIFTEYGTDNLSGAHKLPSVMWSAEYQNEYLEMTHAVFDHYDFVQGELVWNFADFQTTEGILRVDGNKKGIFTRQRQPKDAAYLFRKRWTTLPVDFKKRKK

[2] = molecular target: Clostridium perfringens GUS (CpGUS) (Clostridium perfringens, UniProt Q8VNV4); conditions: pH 6.5; 37 °C
[3] = molecular target: T2, Lactobacillus rhamnosus GUS (LrGUS) (Lacticaseibacillus rhamnosus, UniProt A0A2A5L2J1); experiment: In vitro DCF-G processing assay (UPLC); conditions: DCF-G as substrate, 400 µM; pH 4.5; 37 °C
T2 sequence (A0A2A5L2J1 1-603): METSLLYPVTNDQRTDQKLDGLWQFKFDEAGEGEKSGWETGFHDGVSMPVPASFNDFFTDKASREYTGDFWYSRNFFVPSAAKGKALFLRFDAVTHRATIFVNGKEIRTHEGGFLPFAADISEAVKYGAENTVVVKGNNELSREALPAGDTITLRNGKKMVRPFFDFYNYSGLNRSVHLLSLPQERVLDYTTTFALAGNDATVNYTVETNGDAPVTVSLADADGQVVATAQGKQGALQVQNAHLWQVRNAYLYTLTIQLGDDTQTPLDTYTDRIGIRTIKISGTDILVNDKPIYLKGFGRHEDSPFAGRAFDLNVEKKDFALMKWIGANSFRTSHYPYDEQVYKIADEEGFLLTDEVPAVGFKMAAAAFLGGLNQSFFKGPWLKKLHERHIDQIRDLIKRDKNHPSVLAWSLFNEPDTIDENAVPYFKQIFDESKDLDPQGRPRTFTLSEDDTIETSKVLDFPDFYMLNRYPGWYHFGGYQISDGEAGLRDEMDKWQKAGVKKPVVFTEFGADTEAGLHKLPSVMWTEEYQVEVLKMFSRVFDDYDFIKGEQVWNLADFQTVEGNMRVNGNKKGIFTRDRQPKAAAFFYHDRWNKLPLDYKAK

[4] = molecular target: T3, Bacteroides uniformis GUS (BuGUS) (Bacteroides uniformis, UniProt A0A078SUX9); experiment: In vitro DCF-G processing assay (UPLC); conditions: DCF-G as substrate, 400 µM; pH 5.5; 37 °C
T3 sequence (A0A078SUX9 32-886): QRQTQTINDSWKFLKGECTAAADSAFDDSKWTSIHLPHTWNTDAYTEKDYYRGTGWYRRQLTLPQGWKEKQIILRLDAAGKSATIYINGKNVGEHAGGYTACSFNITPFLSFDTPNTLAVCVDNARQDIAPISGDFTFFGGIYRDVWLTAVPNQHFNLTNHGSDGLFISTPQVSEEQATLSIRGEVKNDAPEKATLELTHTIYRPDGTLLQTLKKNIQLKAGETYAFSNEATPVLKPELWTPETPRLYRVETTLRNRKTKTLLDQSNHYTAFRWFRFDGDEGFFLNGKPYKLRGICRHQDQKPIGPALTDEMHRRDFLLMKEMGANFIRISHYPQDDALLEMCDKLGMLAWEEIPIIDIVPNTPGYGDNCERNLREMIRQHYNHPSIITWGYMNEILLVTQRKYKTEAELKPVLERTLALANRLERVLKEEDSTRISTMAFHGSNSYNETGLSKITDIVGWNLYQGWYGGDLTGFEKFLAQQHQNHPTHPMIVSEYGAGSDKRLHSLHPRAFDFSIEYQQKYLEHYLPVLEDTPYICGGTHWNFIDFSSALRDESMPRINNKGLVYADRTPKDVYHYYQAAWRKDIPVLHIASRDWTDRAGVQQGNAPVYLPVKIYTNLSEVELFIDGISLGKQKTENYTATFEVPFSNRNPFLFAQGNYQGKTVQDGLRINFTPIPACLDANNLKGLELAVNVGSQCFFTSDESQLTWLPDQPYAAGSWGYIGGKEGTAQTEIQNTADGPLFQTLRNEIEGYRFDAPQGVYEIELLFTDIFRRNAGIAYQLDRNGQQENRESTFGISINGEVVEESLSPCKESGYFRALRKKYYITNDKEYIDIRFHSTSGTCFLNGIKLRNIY

O=C(Cc1ccccc1Nc1c(Cl)cccc1Cl)O[C@@H]1O[C@H](C(=O)O)[C@@H](O)[C@H](O)[C@H]1O [DCF-G, Diclofenac acyl β-D-glucuronide] was tested, and the “Apparent kcat” value [1] was 32 ± 3 s⁻¹, the “Apparent kcat” value [2] was 61.5 ± 0.6 s⁻¹ and the “Apparent kcat” value [3] was 10 s⁻¹ and 10 ± 1 s⁻¹. For the same molecule, the “Apparent kcat” value [4] was 10 ± 1 s⁻¹.
